From patent publication US9149038B2, “4-amino-6-(heterocyclic)picolinates and 6-amino-2-(heterocyclic)pyrimidine-4-carboxylates and their use as herbicides” (Dow AgroSciences LLC, priority 2013, dated 2015)
Read-outs that look alike come from different tables or passages of the source.

Test system: Wheat and Barley and weed species
Experiment: Post-Emergent Test III: postemergent herbicidal activity in wheat and barley, visual rating after 21 d and probit GR20/GR50/GR80/GR90 (Tables 9-13)
Format: in vivo
Conditions: for pest or weed control at 17.5 g/ha / pest or weed control at 35 g/ha / pest or weed control at 70 g/ha: post-emergence, 504 h
In short: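 Greenhouse plants (~18/17 °C, 14 h photoperiod) at second–third true leaf stage sprayed at 187 L/ha with a high rate and ½× to 1/16× serial dilutions. Visual injury 0–100% versus solvent-blank controls scored at 21 d; GR20, GR50, GR80 and GR90 derived by probit analysis across rates.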

## COC(=O)c1nc(-c2ccc(Br)c3c2OC(F)(F)O3)c(F)c(N)c1Cl [Compound 78, Methyl 4-amino-6-(7-bromo-2,2-difluorobenzo[d][1,3]dioxol-4-yl)-3-chloro-5-fluoropicolinate]
CIRAR Canada thistle (Cirsium arvense), 17.5 g ai/ha
  Visual Growth Reduction (%) 21 Days After Application CIRAR: B (85-94)
CIRAR Canada thistle (Cirsium arvense), 35 g ai/ha
  Visual Growth Reduction (%) 21 Days After Application CIRAR: B (85-94)
CIRAR Canada thistle (Cirsium arvense), 70 g ai/ha
  Visual Growth Reduction (%) 21 Days After Application CIRAR: B (85-94)
CIRAR Canada thistle (Cirsium arvense), growth reduction of 50%, probit analysis
  GR50 CIRAR: 2 g ai/ha
CIRAR Canada thistle (Cirsium arvense), growth reduction of 80%, probit analysis
  GR80 CIRAR: 7 g ai/ha
CIRAR Canada thistle (Cirsium arvense), growth reduction of 90%, probit analysis
  GR90 CIRAR: 12 g ai/ha
GALAP cleavers (Galium aparine), 17.5 g ai/ha
  Visual Growth Reduction (%) 21 Days After Application GALAP: D (60-74)
GALAP cleavers (Galium aparine), 35 g ai/ha
  Visual Growth Reduction (%) 21 Days After Application GALAP: D (60-74)
GALAP cleavers (Galium aparine), 70 g ai/ha
  Visual Growth Reduction (%) 21 Days After Application GALAP: D (60-74)
GALAP cleavers (Galium aparine), growth reduction of 50%, probit analysis
  GR50 GALAP: 1 g ai/ha
GALAP cleavers (Galium aparine), growth reduction of 80%, probit analysis
  GR80 GALAP: >140 g ai/ha
GALAP cleavers (Galium aparine), growth reduction of 90%, probit analysis
  GR90 GALAP: >140 g ai/ha
HORVS barley, spring (crop), growth reduction of 20%, probit analysis
  GR20 HORVS: 13 g ai/ha
Hordeum vulgare, HORVS barley, spring (crop), 17.5 g ai/ha, read-out: Visual Growth Reduction (%) 21 Days After Application HORVS
  pest or weed control at 17.5 g/ha: 30 to 44%
Hordeum vulgare, HORVS barley, spring (crop), 35 g ai/ha, read-out: Visual Growth Reduction (%) 21 Days After Application HORVS
  pest or weed control at 35 g/ha: 45 to 59%
Hordeum vulgare, HORVS barley, spring (crop), 70 g ai/ha, read-out: Visual Growth Reduction (%) 21 Days After Application HORVS
  pest or weed control at 70 g/ha: 60 to 74%
KCHSC kochia (Kochia scoparia), 17.5 g ai/ha
  Visual Growth Reduction (%) 21 Days After Application KCHSC: B (85-94)
KCHSC kochia (Kochia scoparia), 35 g ai/ha
  Visual Growth Reduction (%) 21 Days After Application KCHSC: A (95-100)
KCHSC kochia (Kochia scoparia), 70 g ai/ha
  Visual Growth Reduction (%) 21 Days After Application KCHSC: A (95-100)
KCHSC kochia (Kochia scoparia), growth reduction of 50%, probit analysis
  GR50 KCHSC: 2 g ai/ha
KCHSC kochia (Kochia scoparia), growth reduction of 80%, probit analysis
  GR80 KCHSC: 9 g ai/ha
KCHSC kochia (Kochia scoparia), growth reduction of 90%, probit analysis
  GR90 KCHSC: 19 g ai/ha
LAMPU purple deadnettle (Lamium purpureum), 17.5 g ai/ha
  Visual Growth Reduction (%) 21 Days After Application LAMPU: D (60-74)
LAMPU purple deadnettle (Lamium purpureum), 35 g ai/ha
  Visual Growth Reduction (%) 21 Days After Application LAMPU: C (75-84)
LAMPU purple deadnettle (Lamium purpureum), 70 g ai/ha
  Visual Growth Reduction (%) 21 Days After Application LAMPU: B (85-94)
LAMPU purple deadnettle (Lamium purpureum), growth reduction of 50%, probit analysis
  GR50 LAMPU: 2 g ai/ha
LAMPU purple deadnettle (Lamium purpureum), growth reduction of 80%, probit analysis
  GR80 LAMPU: 46 g ai/ha
LAMPU purple deadnettle (Lamium purpureum), growth reduction of 90%, probit analysis
  GR90 LAMPU: >140 g ai/ha
MATCH wild chamomile (Matricaria recutita L.), 17.5 g ai/ha
  Visual Growth Reduction (%) 21 Days After Application MATCH: G (0-29)
MATCH wild chamomile (Matricaria recutita L.), 35 g ai/ha
  Visual Growth Reduction (%) 21 Days After Application MATCH: F (30-44)
MATCH wild chamomile (Matricaria recutita L.), 70 g ai/ha
  Visual Growth Reduction (%) 21 Days After Application MATCH: E (45-59)
MATCH wild chamomile (Matricaria recutita L.), growth reduction of 50%, probit analysis
  GR50 MATCH: 63 g ai/ha
MATCH wild chamomile (Matricaria recutita L.), growth reduction of 80%, probit analysis
  GR80 MATCH: >140 g ai/ha
MATCH wild chamomile (Matricaria recutita L.), growth reduction of 90%, probit analysis
  GR90 MATCH: >140 g ai/ha
PAPRH common poppy (Papaver rhoeas), 17.5 g ai/ha
  Visual Growth Reduction (%) 21 Days After Application PAPRH: F (30-44)
PAPRH common poppy (Papaver rhoeas), 35 g ai/ha
  Visual Growth Reduction (%) 21 Days After Application PAPRH: D (60-74)
PAPRH common poppy (Papaver rhoeas), 70 g ai/ha
  Visual Growth Reduction (%) 21 Days After Application PAPRH: C (75-84)
PAPRH common poppy (Papaver rhoeas), growth reduction of 50%, probit analysis
  GR50 PAPRH: 44 g ai/ha
PAPRH common poppy (Papaver rhoeas), growth reduction of 80%, probit analysis
  GR80 PAPRH: >140 g ai/ha
PAPRH common poppy (Papaver rhoeas), growth reduction of 90%, probit analysis
  GR90 PAPRH: >140 g ai/ha
SASKR Russian thistle (Salsola iberica), 17.5 g ai/ha
  Visual Growth Reduction (%) 21 Days After Application SASKR: B (85-94)
SASKR Russian thistle (Salsola iberica), growth reduction of 50%, probit analysis
  GR50 SASKR: 0.4 g ai/ha
SASKR Russian thistle (Salsola iberica), growth reduction of 80%, probit analysis
  GR80 SASKR: 9 g ai/ha
SASKR Russian thistle (Salsola iberica), growth reduction of 90%, probit analysis
  GR90 SASKR: 42 g ai/ha
SINAR wild mustard (Sinapis arvensis), 17.5 g ai/ha
  Visual Growth Reduction (%) 21 Days After Application SINAR: A (95-100)
SINAR wild mustard (Sinapis arvensis), 35 g ai/ha
  Visual Growth Reduction (%) 21 Days After Application SINAR: A (95-100)
SINAR wild mustard (Sinapis arvensis), 70 g ai/ha
  Visual Growth Reduction (%) 21 Days After Application SINAR: A (95-100)
SINAR wild mustard (Sinapis arvensis), growth reduction of 50%, probit analysis
  GR50 SINAR: 1 g ai/ha
SINAR wild mustard (Sinapis arvensis), growth reduction of 80%, probit analysis
  GR80 SINAR: 3 g ai/ha
SINAR wild mustard (Sinapis arvensis), growth reduction of 90%, probit analysis
  GR90 SINAR: 8 g ai/ha
TRZAS wheat, spring (crop), growth reduction of 20%, probit analysis
  GR20 TRZAS: 20 g ai/ha
Triticum aestivum, TRZAS wheat, spring (crop), 17.5 g ai/ha, read-out: Visual Growth Reduction (%) 21 Days After Application TRZAS
  pest or weed control at 17.5 g/ha: 0 to 29%
Triticum aestivum, TRZAS wheat, spring (crop), 35 g ai/ha, read-out: Visual Growth Reduction (%) 21 Days After Application TRZAS
  pest or weed control at 35 g/ha: 30 to 44%
Triticum aestivum, TRZAS wheat, spring (crop), 70 g ai/ha, read-out: Visual Growth Reduction (%) 21 Days After Application TRZAS
  pest or weed control at 70 g/ha: 45 to 59%
VERPE bird's-eye speedwell (veronica persica), 17.5 g ai/ha
  Visual Growth Reduction (%) 21 Days After Application VERPE: G (0-29)
VERPE bird's-eye speedwell (veronica persica), 35 g ai/ha
  Visual Growth Reduction (%) 21 Days After Application VERPE: D (60-74)
VERPE bird's-eye speedwell (veronica persica), 70 g ai/ha
  Visual Growth Reduction (%) 21 Days After Application VERPE: C (75-84)
VERPE bird's-eye speedwell (veronica persica), growth reduction of 50%, probit analysis
  GR50 VERPE: 33 g ai/ha
VERPE bird's-eye speedwell (veronica persica), growth reduction of 80%, probit analysis
  GR80 VERPE: 77 g ai/ha
VERPE bird's-eye speedwell (veronica persica), growth reduction of 90%, probit analysis
  GR90 VERPE: 119 g ai/ha
VIOTR wild pansy (Viola tricolor), 17.5 g ai/ha
  Visual Growth Reduction (%) 21 Days After Application VIOTR: F (30-44)
VIOTR wild pansy (Viola tricolor), 35 g ai/ha
  Visual Growth Reduction (%) 21 Days After Application VIOTR: F (30-44)
VIOTR wild pansy (Viola tricolor), 70 g ai/ha
  Visual Growth Reduction (%) 21 Days After Application VIOTR: D (60-74)
VIOTR wild pansy (Viola tricolor), growth reduction of 50%, probit analysis
  GR50 VIOTR: 47 g ai/ha
VIOTR wild pansy (Viola tricolor), growth reduction of 80%, probit analysis
  GR80 VIOTR: >140 g ai/ha
VIOTR wild pansy (Viola tricolor), growth reduction of 90%, probit analysis
  GR90 VIOTR: >140 g ai/ha
